Measured values as given in ChEMBL document CHEMBL5244205, “Discovery of tricyclic dipyrrolopyridine derivatives as novel JAK inhibitors” (Bioorg Med Chem, 2017).

What was measured:
[1] = target: Tyrosine-protein kinase JAK2 (Homo sapiens, UniProt O60674)
Description: Inhibition of human JAK2 kinase domain using biotin-Lyn-substrate-2 as substrate incubated for 1 hr by ELISA

[2] = target: T1, Tyrosine-protein kinase JAK3 (Homo sapiens, UniProt P52333)
T1 sequence (P52333 whole entry): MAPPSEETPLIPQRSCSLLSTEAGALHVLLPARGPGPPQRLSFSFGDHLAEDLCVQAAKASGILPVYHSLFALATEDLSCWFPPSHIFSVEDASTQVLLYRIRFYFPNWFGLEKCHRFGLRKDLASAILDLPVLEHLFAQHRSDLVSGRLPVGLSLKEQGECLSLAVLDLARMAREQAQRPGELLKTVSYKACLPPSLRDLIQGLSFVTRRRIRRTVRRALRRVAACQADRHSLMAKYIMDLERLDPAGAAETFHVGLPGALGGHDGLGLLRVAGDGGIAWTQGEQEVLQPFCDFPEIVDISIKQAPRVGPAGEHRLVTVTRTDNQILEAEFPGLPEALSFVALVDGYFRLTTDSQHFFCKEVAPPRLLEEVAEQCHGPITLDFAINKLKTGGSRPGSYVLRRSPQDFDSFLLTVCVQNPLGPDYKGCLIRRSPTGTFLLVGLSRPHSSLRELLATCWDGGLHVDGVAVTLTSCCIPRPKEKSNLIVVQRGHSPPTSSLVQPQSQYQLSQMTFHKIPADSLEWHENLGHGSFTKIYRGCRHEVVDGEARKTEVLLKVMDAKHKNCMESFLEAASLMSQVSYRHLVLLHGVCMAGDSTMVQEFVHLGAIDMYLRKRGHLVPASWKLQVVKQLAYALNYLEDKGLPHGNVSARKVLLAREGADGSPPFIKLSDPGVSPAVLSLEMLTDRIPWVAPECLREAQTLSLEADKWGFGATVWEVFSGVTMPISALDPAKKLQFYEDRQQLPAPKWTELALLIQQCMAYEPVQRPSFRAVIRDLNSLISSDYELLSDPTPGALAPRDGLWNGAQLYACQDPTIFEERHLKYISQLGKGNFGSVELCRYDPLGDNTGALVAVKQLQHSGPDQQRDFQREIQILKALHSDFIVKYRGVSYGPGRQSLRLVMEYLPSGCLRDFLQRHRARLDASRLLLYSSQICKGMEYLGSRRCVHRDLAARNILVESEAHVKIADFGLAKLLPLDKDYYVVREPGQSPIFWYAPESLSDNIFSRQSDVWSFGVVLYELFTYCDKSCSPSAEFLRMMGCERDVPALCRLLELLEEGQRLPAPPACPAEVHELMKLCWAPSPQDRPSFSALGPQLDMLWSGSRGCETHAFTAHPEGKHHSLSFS
Description: Inhibition of human JAK3 kinase domain using biotin-Lyn-substrate-2 as substrate incubated for 1 hr by ELISA

in vitro [3] = settings: Sprague-Dawley, rat, liver microsomes, CLH
CYP3A4 = CYP3A4 (Homo sapiens, UniProt P08684); test: in vitro; settings: liver microsomes, probe midazolam, TDI
Chain of CYP3A4 (P08684 whole entry): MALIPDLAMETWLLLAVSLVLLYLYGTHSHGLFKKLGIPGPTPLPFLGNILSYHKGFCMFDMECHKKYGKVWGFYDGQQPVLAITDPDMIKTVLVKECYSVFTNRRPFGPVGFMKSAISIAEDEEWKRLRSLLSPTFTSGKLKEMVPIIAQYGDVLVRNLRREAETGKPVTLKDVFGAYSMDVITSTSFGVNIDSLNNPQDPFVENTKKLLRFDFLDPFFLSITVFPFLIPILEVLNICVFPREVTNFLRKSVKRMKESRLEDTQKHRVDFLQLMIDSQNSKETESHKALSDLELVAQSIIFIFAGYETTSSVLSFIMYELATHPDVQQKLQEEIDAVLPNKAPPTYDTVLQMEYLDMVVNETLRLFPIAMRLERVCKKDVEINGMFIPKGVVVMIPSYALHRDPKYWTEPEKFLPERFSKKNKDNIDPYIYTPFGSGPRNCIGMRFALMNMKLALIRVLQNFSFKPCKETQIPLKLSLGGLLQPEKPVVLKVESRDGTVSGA

in vitro [4] = settings: PAMPA, pH 6.5, permeability
Description: Permeability of the compound in pH 6.5 incubated for 2 hrs by PAMPA based HPLC analysis

[5] = target: Tyrosine-protein kinase JAK1 (Homo sapiens, UniProt P23458)
Chain of Tyrosine-protein kinase JAK1 (P23458 whole entry): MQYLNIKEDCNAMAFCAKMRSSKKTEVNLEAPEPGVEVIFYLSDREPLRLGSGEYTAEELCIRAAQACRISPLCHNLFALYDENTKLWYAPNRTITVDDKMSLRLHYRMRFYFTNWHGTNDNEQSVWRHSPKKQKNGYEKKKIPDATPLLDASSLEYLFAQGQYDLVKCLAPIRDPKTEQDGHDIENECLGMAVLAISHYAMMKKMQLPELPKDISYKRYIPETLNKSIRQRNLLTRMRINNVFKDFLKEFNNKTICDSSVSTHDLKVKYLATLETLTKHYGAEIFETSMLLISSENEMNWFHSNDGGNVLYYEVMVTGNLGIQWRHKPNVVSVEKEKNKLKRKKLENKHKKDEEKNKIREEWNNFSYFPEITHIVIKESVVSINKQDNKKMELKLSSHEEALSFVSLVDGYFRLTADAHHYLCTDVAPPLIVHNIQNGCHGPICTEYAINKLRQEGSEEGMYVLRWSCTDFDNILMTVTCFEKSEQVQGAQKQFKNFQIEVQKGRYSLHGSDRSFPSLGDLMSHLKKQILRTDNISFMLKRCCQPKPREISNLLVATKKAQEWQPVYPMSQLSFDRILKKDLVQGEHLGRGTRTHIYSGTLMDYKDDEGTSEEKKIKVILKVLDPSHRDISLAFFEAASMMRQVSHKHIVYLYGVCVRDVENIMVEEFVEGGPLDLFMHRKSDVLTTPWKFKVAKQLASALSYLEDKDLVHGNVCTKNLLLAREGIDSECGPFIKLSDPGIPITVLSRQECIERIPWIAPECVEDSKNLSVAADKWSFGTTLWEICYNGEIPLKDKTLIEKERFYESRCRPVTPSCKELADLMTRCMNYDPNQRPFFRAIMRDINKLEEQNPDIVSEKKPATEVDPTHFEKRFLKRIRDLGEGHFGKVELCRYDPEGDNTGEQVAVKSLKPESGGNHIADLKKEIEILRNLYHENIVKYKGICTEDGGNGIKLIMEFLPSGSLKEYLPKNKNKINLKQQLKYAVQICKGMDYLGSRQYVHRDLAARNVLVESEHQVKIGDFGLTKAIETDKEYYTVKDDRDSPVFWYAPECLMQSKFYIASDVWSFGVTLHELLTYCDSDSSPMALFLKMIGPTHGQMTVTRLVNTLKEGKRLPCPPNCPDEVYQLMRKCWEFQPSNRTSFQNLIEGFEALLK
Description: Inhibition of human JAK1 kinase domain using biotin-Lyn-substrate-2 as substrate incubated for 1 hr by ELISA

[6] = target: Tyrosine-protein kinase Lck (Homo sapiens) (UniProt P06239); test: Inhibition of LCK (unknown origin) at 1000 nM relative to control
[7] = target: Protein kinase C alpha type (Homo sapiens) (UniProt P17252); test: Inhibition of PKCalpha (unknown origin) at 1000 nM relative to control
[8] = target: Rho-associated protein kinase 1 (Homo sapiens) (UniProt Q13464); test: Inhibition of ROCK1 (unknown origin) at 1000 nM relative to control
Chain of Rho-associated protein kinase 1 (Homo sapiens) (Q13464 2-1354 limits assumed): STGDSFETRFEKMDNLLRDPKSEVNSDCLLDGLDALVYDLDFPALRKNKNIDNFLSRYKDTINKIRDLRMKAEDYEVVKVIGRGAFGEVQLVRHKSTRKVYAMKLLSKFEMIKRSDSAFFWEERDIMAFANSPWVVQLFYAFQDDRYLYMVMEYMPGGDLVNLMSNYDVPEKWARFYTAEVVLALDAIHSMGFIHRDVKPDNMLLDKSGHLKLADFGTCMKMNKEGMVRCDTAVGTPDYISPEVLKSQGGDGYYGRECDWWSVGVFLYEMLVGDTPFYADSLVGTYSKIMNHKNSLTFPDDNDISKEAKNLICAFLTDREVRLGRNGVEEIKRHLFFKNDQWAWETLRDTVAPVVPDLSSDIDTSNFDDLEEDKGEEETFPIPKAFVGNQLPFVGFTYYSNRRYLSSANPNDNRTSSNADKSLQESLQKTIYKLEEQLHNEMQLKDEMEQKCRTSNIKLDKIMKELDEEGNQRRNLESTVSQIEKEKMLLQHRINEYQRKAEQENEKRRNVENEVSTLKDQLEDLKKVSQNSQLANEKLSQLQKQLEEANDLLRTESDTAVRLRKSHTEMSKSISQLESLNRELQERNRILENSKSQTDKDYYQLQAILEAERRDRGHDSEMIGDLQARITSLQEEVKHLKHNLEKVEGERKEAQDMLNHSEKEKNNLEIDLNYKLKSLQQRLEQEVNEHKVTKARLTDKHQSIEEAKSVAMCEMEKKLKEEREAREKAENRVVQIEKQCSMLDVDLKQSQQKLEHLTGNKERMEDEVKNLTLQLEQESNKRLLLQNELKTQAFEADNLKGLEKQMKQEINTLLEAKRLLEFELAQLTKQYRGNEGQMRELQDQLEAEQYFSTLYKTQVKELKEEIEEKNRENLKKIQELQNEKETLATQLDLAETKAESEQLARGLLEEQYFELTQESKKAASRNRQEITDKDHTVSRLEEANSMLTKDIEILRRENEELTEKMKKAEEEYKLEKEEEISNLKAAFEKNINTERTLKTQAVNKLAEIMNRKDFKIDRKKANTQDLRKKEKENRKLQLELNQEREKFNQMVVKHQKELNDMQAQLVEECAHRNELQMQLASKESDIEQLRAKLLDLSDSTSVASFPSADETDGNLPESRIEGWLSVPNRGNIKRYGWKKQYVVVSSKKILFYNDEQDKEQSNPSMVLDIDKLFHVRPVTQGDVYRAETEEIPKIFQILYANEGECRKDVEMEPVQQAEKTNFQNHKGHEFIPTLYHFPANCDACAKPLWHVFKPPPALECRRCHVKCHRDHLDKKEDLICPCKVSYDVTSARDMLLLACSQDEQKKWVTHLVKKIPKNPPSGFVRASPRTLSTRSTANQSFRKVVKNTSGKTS

Homo sapiens = species on record: Homo sapiens; test: Selectivity index, ratio of IC50 for human JAK3 to IC50 for human JAK2
[9] = target: Proto-oncogene tyrosine-protein kinase Src (Homo sapiens, UniProt P12931); test: Inhibition of SRC (unknown origin) at 1000 nM relative to control
[10] = target: High affinity nerve growth factor receptor (Homo sapiens, UniProt P04629); test: Inhibition of TRKA (unknown origin) at 1000 nM relative to control
[11] = target: RAC-alpha serine/threonine-protein kinase (Homo sapiens, UniProt P31749); test: Inhibition of AKT1 (unknown origin) at 1000 nM relative to control
[12] = target: Aurora kinase C (Homo sapiens) (UniProt Q9UQB9); test: Inhibition of AURC (unknown origin) at 1000 nM relative to control
[13] = target: Calcium/calmodulin-dependent protein kinase type II subunit alpha (Homo sapiens, UniProt Q9UQM7); test: Inhibition of CAMK2alpha (unknown origin) at 1000 nM relative to control
[14] = target: Cyclin-dependent kinase 2 (Homo sapiens, UniProt P24941); test: Inhibition of CDK2 (unknown origin) at 1000 nM relative to control
[15] = target: Serine/threonine-protein kinase Chk1 (Homo sapiens) (UniProt O14757); test: Inhibition of CHK1 (unknown origin) at 1000 nM relative to control
[16] = target: Glycogen synthase kinase-3 beta (Homo sapiens, UniProt P49841); test: Inhibition of GSK3beta (unknown origin) at 1000 nM relative to control
[17] = target: Mitogen-activated protein kinase 8 (Homo sapiens, UniProt P45983); test: Inhibition of JNK1 (unknown origin) at 1000 nM relative to control
[18] = target: Dual specificity mitogen-activated protein kinase kinase 1 (Homo sapiens, UniProt Q02750); test: Inhibition of MAP2K1 (unknown origin) at 1000 nM relative to control
[19] = target: Ribosomal protein S6 kinase beta-1 (Homo sapiens, UniProt P23443); test: Inhibition of p70S6K (unknown origin) at 1000 nM relative to control
[20] = Clearance in Sprague-Dawley rat at 1 mg/kg, iv measured up to 24 hrs by LC-MS/MS analysis; type: ADME, organism-based; settings: in vivo
[21] = Volume of distribution in Sprague-Dawley rat at 1 mg/kg, iv measured up to 24 hrs by LC-MS/MS analysis; type: ADME, organism-based; settings: in vivo
[22] = Half life in Sprague-Dawley rat at 1 mg/kg, iv measured up to 24 hrs by LC-MS/MS analysis; type: ADME, organism-based; settings: in vivo
[23] = AUC (0 to 24 hrs) in Sprague-Dawley rat at 1 mg/kg, iv measured up to 24 hrs by LC-MS/MS analysis; type: ADME, organism-based; parameters: dose 1 mg/kg, time < 24 hrs, route iv; settings: in vivo
[24] = Cmax in Sprague-Dawley rat at 1 mg/kg, po measured up to 24 hrs by LC-MS/MS analysis; type: ADME, organism-based; parameters: time < 24 hrs, dose 1 mg/kg, route po; settings: in vivo
[25] = Half life in Sprague-Dawley rat at 1 mg/kg, po measured up to 24 hrs by LC-MS/MS analysis; type: ADME, organism-based; settings: in vivo
[26] = AUC (0 to 24 hrs) in Sprague-Dawley rat at 1 mg/kg, po measured up to 24 hrs by LC-MS/MS analysis; type: ADME, organism-based; parameters: dose 1 mg/kg, time < 24 hrs, route po; settings: in vivo
[27] = Oral availability in Sprague-Dawley rat at 1 mg/kg measured up to 24 hrs by LC-MS/MS analysis; type: ADME, organism-based; settings: in vivo
[28] = Tmax in Sprague-Dawley rat at 1 mg/kg, po measured up to 24 hrs by LC-MS/MS analysis; type: ADME, organism-based; settings: in vivo

Chain of Tyrosine-protein kinase JAK2 (O60674 whole entry): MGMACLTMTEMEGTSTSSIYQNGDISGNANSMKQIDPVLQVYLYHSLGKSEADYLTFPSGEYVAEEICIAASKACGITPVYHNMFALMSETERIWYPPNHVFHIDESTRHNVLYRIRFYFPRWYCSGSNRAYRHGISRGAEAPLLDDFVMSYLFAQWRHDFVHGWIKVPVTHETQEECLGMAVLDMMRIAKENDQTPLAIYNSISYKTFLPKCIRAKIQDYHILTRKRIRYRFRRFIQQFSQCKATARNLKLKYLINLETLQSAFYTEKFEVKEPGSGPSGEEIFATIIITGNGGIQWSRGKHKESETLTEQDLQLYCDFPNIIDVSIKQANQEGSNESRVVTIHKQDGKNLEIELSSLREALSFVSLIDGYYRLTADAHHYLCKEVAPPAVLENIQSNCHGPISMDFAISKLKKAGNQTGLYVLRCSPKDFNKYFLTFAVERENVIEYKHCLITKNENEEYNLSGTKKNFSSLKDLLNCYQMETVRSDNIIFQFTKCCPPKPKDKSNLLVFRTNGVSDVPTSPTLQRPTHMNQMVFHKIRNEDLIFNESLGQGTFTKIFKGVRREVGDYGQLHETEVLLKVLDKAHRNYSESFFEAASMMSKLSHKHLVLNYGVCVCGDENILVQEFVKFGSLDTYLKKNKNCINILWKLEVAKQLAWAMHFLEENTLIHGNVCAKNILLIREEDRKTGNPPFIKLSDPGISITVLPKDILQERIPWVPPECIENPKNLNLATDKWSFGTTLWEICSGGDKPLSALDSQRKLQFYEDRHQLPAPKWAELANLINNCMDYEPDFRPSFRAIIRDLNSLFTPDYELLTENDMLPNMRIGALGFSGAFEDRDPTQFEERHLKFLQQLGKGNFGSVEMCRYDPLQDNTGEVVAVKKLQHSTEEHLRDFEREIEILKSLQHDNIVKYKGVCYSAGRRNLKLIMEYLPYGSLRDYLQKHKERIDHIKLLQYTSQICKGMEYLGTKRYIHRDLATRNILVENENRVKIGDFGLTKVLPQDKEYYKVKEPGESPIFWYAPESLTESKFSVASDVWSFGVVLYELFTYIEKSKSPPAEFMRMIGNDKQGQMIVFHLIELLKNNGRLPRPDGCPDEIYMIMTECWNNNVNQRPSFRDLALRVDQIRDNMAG

Compound `C[C@@H]1CCN(C(=O)CC#N)C[C@@H]1n1cc(C#N)c2cnc3[nH]ccc3c21` (racemic) has an IC50 [1] of 2.2 nM, an IC50 [2] of 1.1 nM and a CLint scaled at 0.75 h, 0.2 µM (in vitro [3]) of 47 mL/min/kg. It also gave an inhibition at 20 min, 5 µM (CYP3A4) of 91% and a Papp at 2 h (in vitro [4]) of 3.8 ×10⁻⁶ cm/s.

`C[C@H]1CCN(C(=O)CC#N)C[C@H]1n1ccc2cnc3[nH]ccc3c21` gave an IC50 [1] of 390 nM, an IC50 [2] of 200 nM and a CLint scaled at 0.75 h, 0.2 µM (in vitro [3]) of 89 mL/min/kg. It also gave an inhibition at 20 min, 5 µM (CYP3A4) of 88% and a Papp at 2 h (in vitro [4]) of 21 ×10⁻⁶ cm/s.

Compound `Cc1c[nH]c2ncc3ccn([C@H]4CN(C(=O)CC#N)CC[C@H]4C)c3c12` (racemic) has an IC50 [1] of 4.9 nM, an IC50 [2] of 2.5 nM and a CLint scaled at 0.75 h, 0.2 µM (in vitro [3]) of 309 mL/min/kg. For the same compound, the inhibition at 20 min, 5 µM (CYP3A4) was 62% and the Papp at 2 h (in vitro [4]) was 23 ×10⁻⁶ cm/s.

`C[C@@H]1CCN(C(=O)C(C)(C)C#N)C[C@@H]1n1c(=O)[nH]c2cnc3[nH]ccc3c21` (racemic) gave an IC50 [1] of 15 nM, an IC50 [2] of 7.1 nM and an IC50 [5] of 58 nM. For the same compound, the CLint scaled at 0.75 h, 0.2 µM (in vitro [3]) was 44 mL/min/kg, the inhibition at 20 min, 5 µM (CYP3A4) was 18% and the Papp at 2 h (in vitro [4]) was 6.3 ×10⁻⁶ cm/s.

Compound `C[C@@H]1CCN(C(=O)CC#N)C[C@@H]1n1ccc2cnc3[nH]ccc3c21` (racemic) has an IC50 [1] of 1 nM, an IC50 [2] of 0.44 nM and an IC50 [5] of 1.1 nM. It also gave a CLint scaled at 0.75 h, 0.2 µM (in vitro [3]) of 110 mL/min/kg, an inhibition at 20 min, 5 µM (CYP3A4) of 90% and a Papp at 2 h (in vitro [4]) of 13 ×10⁻⁶ cm/s.

`C[C@@H]1CCN(C(=O)Cn2cnnn2)C[C@@H]1n1c(=O)[nH]c2cnc3[nH]ccc3c21` (racemic) gave an IC50 [1] of 3.5 nM, an IC50 [2] of 1.4 nM and an IC50 [5] of 3.2 nM. For the same compound, the inhibition at 20 min, 5 µM (CYP3A4) was 88% and the Papp at 2 h (in vitro [4]) was < 0.8 ×10⁻⁶ cm/s.

For `C[C@@H]1CCN(c2ccc(C#N)cn2)C[C@@H]1n1c(=O)[nH]c2cnc3[nH]ccc3c21` (racemic), the IC50 [1] was 4.5 nM, the IC50 [2] was 1.6 nM and the IC50 [5] was 9 nM. For the same compound, the CLint scaled at 0.75 h, 0.2 µM (in vitro [3]) was 195 mL/min/kg, the inhibition at 20 min, 5 µM (CYP3A4) was 29% and the Papp at 2 h (in vitro [4]) was 8.8 ×10⁻⁶ cm/s.

For `C[C@@H]1CCN(C(=O)N2CCCCC2)C[C@@H]1n1c(=O)[nH]c2cnc3[nH]ccc3c21` (racemic), the IC50 [1] was 7 nM, the IC50 [2] was 2.1 nM and the IC50 [5] was 13 nM. The CLint scaled at 0.75 h, 0.2 µM (in vitro [3]) was 249 mL/min/kg, the inhibition at 20 min, 5 µM (CYP3A4) was 11% and the Papp at 2 h (in vitro [4]) was 11 ×10⁻⁶ cm/s.

In the case of `C[C@@H]1CCN(C(=O)CC#N)C[C@@H]1n1c(=O)n(C)c2cnc3[nH]ccc3c21` (racemic), the Papp at 2 h (in vitro [4]) is reported as 2.5 ×10⁻⁶ cm/s.

Compound `Cc1cc2cnc3[nH]ccc3c2n1[C@H]1CN(C(=O)CC#N)CC[C@H]1C` (racemic) has an IC50 [1] of 0.3 nM, an IC50 [2] of 0.17 nM and an IC50 [5] of 0.43 nM. The CLint scaled at 0.75 h, 0.2 µM (in vitro [3]) was 154 mL/min/kg, the inhibition at 20 min, 5 µM (CYP3A4) was 44% and the Papp at 2 h (in vitro [4]) was 26 ×10⁻⁶ cm/s.

`C[C@@H]1CCN(C(=O)CC#N)C[C@@H]1n1ccc2cnc3[nH]ccc3c21` gave an inhibition [6] of 55%, an inhibition [7] of 67% and an inhibition [8] of 75%.

`C[C@@H]1CCN(C(=O)CC#N)C[C@@H]1n1ccc2cnc3[nH]cc(C#N)c3c21` (racemic) gave an IC50 [1] of 4.1 nM, an IC50 [2] of 0.38 nM and a CLint scaled at 0.75 h, 0.2 µM (in vitro [3]) of 419 mL/min/kg. For the same compound, the inhibition at 20 min, 5 µM (CYP3A4) was 90% and the Papp at 2 h (in vitro [4]) was 13 ×10⁻⁶ cm/s.

`C[C@@H]1CCN(C(=O)N2CCOCC2)C[C@@H]1n1c(=O)[nH]c2cnc3[nH]ccc3c21` (racemic) gave an IC50 [1] of 12 nM, an IC50 [2] of 5.5 nM and an IC50 [5] of 19 nM. It also gave an inhibition at 20 min, 5 µM (CYP3A4) of 61% and a Papp at 2 h (in vitro [4]) of 1.3 ×10⁻⁶ cm/s.

`C[C@@H]1CCN(C(=O)CC#N)C[C@@H]1n1ccc2cnc3[nH]cc(C#N)c3c21` gave a Ratio IC50 (Homo sapiens) of 10, an inhibition [6] of 88% and an inhibition [9] of 51%. The inhibition [10] was 67%, the inhibition [11] was 80% and the inhibition [12] was 77%. For the same compound, the inhibition [13] was 54%, the inhibition [14] was 91% and the inhibition [15] was 59%. It also gave an inhibition [16] of 92%, an inhibition [17] of 59% and an inhibition [18] of 90%. It also gave an inhibition [19] of 78%, an inhibition [7] of 98% and an inhibition [8] of 75%.

In the case of `C[C@@H]1CCN(C(=O)CC#N)C[C@@H]1n1c(=O)[nH]c2cnc3[nH]ccc3c21` (racemic), the clearance [20] is reported as 113 mL/min/kg, the Vd [21] is reported as 3.62 L/kg and the half-life [22] is reported as 1.13 h. The AUC(0-t) at 24 h [23] was 148 ng·h/mL, the Cmax [24] was 2.98 ng/mL and the half-life [25] was 11.8 h. It also gave an AUC(0-t) at 24 h [26] of 11.8 ng·h/mL, a bioavailability [27] of 11.2% and a Tmax [28] of 0.25 h. For the same compound, the inhibition at 20 min, 5 µM (CYP3A4) was 90% and the Papp at 2 h (in vitro [4]) was < 0.7 ×10⁻⁶ cm/s.

For `C[C@@H]1CCN(C(=O)CC#N)C[C@@H]1n1ncc2cnc3[nH]ccc3c21` (racemic), the IC50 [1] was 11 nM, the IC50 [2] was 4.1 nM and the IC50 [5] was 7.5 nM. The Papp at 2 h (in vitro [4]) was 5.9 ×10⁻⁶ cm/s.
